Holding throughout (assay type): cell-based
Test [1] relates to MV4;11 (acute myelocytic leukemia). Briefly: MTT cytotoxicity assay, leukemic cell line MV4;11. The settings on record: Homo sapiens, MV4-11, 72 h, three days. The method in brief:
(§1)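 Cells grown in RPMI with FBS and L-glutamine at 37 °C, 5% CO2; 2000-5000 cells per well stabilized ≥8 h, then treated in triplicate with compound from 100 to 0.01 μM for three days. MTT added for five hours, formazan dissolved in DMSO, absorbance read at 620 nm versus untreated cells.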
(Tetrazolium dyes change colour on reduction, which living cells bring about.)

The next test deals with Mcl-1. Briefly: Immunoblotting of apoptotic markers in HCT116 cells: Mcl-1. The conditions noted are these: 24 hours, FIG. 4. How it is done: (§2) Effect of novel compounds on apoptosis was confirmed by immunoblotting analysis of selected apoptotic proteins. For immunoblotting, cell were harvested, washed three times with ice-cold PBS and lysed in a buffer (50 mM Tris, pH 7.4, 250 mM NaCl, 5 mM EDTA, 50 mM NaF, 1 mM Na3VO4, 1% Nonidet P40) containing mixture of protease and phosphatase inhibitors (Sigma-Aldrich). 20 μg of total proteins were separated by SDS-polyacrylamide gel electrophoresis (SDS-PAGE) and transferred onto nitrocellulose membranes. Membranes were blocked in 5% milk and 0.1% Tween 20 in PBS and probed overnight with specific antibodies. Specific antibodies were purchased from SigmaAldrich (anti a-tubulin, clone DM1A), Santa Cruz Biotechnology (anti-Mcl-1, clone S-19; anti-PARP, clone F-2; anti-Mdm-2, clone SMP14; anti-Bcl-2), DAKO Cytomation Cell Signaling (anti-PUMA) or were a generous gift from Dr. B. Vojtesek (anti-p53, clone DO-1). All primary antibodies were diluted in PBS containing 5% powdered milk; 0.1% Tween 20. Peroxidase conjugated rabbit anti-mouse immunoglobulin or porcine anti-rabbit immunoglobulin antisera (DAKO) were used as the secondary antibodies and visualised with ECL reagents (GE-Healthcare Life Sciences).

Test [2] has as its system breast carcinoma cell line MCF7. The test is described as follows: Cell cycle profile by BrdU/propidium iodide flow cytometry. The conditions noted are these: asynchronously growing MCF7, 24 h, FIG. 1. How it is done: Sub-confluent cells were treated with test compounds at different concentrations for 24 h. The cultures were pulse-labeled with […] 5-bromo-20-deoxyuridine (BrdU) for 30 min at 37° C. prior to harvesting. The cells were then washed in PBS, fixed with 70% ethanol, and denatured in 2 M HCl. Following neutralization, the cells were stained with anti-BrdU fluorescein-labeled antibodies, washed, stained with propidium iodide and analyzed by flow cytometry using a 488 nm laser

For test [3], the system named is PANC-1 (pancreatic carcinoma). The test is described as follows: MTT cytotoxicity assay, solid cancer cell line PANC-1. The settings on record: Homo sapiens, PANC-1, 72 h, three days. An outline of the steps:
(§3)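 Viability is scored by MTT reduction after a three-day incubation with compound (100 to 0.01 μM, triplicates) in DMEM with serum and L-glutamine. Medium is swapped for DMSO after five hours with MTT and plates are read at 620 nm, untreated wells serving as reference.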

The subject of test [4] is CEM (human lymphoblastoid leukaemia). Briefly: MTT cytotoxicity assay, leukemic cell line CEM. The conditions noted are these: Homo sapiens, 72 h, three days. The method in brief: as §1
The test system of test [5] is HL60 (human promyelocytic leukaemia). Briefly: MTT cytotoxicity assay, leukemic cell line HL60. The settings on record: Homo sapiens, HL-60, 72 h, three days. An outline of the steps: as §1
Test [6] deals with HUVECs (human umbilical vein endothelial cells). Briefly: HUVEC proliferation assay (crystal violet). The conditions noted are these: Homo sapiens, HUVEC, 72 h, read-out: Inhibition of proliferation (EC50). The method in brief: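 Passage-3 HUVECs in endothelial growth medium with 10% FCS; 1.5×10^3 cells cultured 24 h, then treated with compounds or left untreated for 72 h. Proliferation read out by crystal violet staining.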

Test [7] has as its system caspases 3 and 7 in HCT116 cells. The test is described as follows: Caspase-3/7 activity assay in HCT116 cells. The settings on record: 24 h, FIG. 3. How it is done: Measurement of proapoptotic properties of new compounds was based on quantification of enzymatic activities of caspases-3/7. Activity of cellular caspase-3/7 was measured according to Carrasco et al., 2003, BioTechniques, 34(5): 1064-67. Briefly, the cells were incubated in a 96-well plate overnight. Next day, the compounds in appropriate concentrations were added and cells were incubated for 24 hours. After incubation, 3× caspase-3/7 assay buffer (150 mM HEPES pH 7.4, 450 mM NaCl, 150 mM KCl, 30 mM MgCl2, 1.2 mM EGTA, 1.5% Nonidet P40, 0.3% CHAPS, 30% sucrose, 30 mM DTT, 3 mM PMSF) with 150 μM Ac-DEVD-AMC as a substrate (Sigma-Aldrich) was added to the wells and plates were incubated at 37° C. […]. The caspase activity was measured using Fluoroskan Ascent microplate reader (Labsystems) at 346 nm/442 nm (excitation/emission).

The test system of test [8] is PLC/PRF/5 (liver hepatoma). The test is described as follows: MTT cytotoxicity assay, solid cancer cell line PLC/PRF/5. The conditions noted are these: Homo sapiens, PLC-PRF-5, 72 h, three days. The method in brief:
as §3

In another test the test system is PARP-1. The test is described as follows: Immunoblotting of apoptotic markers in HCT116 cells: PARP-1. The conditions noted are these: 24 hours, FIG. 4. How it is done:
as §2

From US9957273B2, “5-substituted 7- [4-(2-pyridyl)phenylmethylamino] -3-isopropylpyrazolo4,3-D]pyrimidine derivatives, use thereof as medicaments, and pharmaceutical compositions” (USTAV EXPERIMENTALNI BOTANIKY AV CR, V.V.I., priority 2015, dated 2018) come the findings set out here.

A word on the IC50: it is the midpoint of a concentration-inhibition curve. A lower IC50 goes with higher potency. Regarding `CC(C)c1[nH]nc2c(NCc3ccc(-c4ccccn4)cc3)nc(NCC(O)CN)nc12` (stereo not shown) [Compound 45], the concentration for half-maximal inhibition (IC50) in test [1] was found to be 0.51 µM; in [3], 0.32 µM; in [4], 0.54 µM; in [5], 0.62 µM; in test [8], 0.2 µM. Besides, in the test with Mcl-1, the “level of anti-apoptotic protein Mcl-1 (immunoblot)” value was “dose-dependent decrease”. In addition, in [2], the “effect on the cell cycle of MCF7” value was “potently arrested cells in S, G2 and M phases”. Further, the EC50 in [6] is 176 nM. Also, the “caspase-3/7 activity in HCT116 cells” value in test [7] was “potent dose-dependent activation of the caspases in nanomolar concentrations”. Besides, the “PARP-1 cleavage (immunoblot)” value in the test on PARP-1 is listed as “appearance of the caspase-3-cleaved PARP-1 fragment at 89 kDa”.
